Data from paper PMC4335872, “Pharmacokinetic-Pharmacodynamic Analysis of Spiroindolone Analogs and KAE609 in a Murine Malaria Model” (Antimicrobial Agents and Chemotherapy, 2015).
Where two headings read alike, the source gives them in different places.

Experiments:
[1] = Oral PK and PK modeling of KAE609 in NMRI mice; format: in vivo, female NMRI mice; settings: for AUC(0-inf) / Cmax: NMRI, 5.3 mg/kg, single oral dose 5.3 mg/kg
Procedure: For the in vivo PK studies, female NMRI mice (specific pathogen free) were obtained from Janvier, Le Genest-Saint-Isle, France. To investigate the influence of the disease status on the pharmacokinetics, a single oral dose (5.3 mg/kg) of KAE609 was given to both the infected and uninfected NMRI mice, and the PK parameters were determined. The infected mice were dosed at 24 h postinfection. The formulation, sampling times (0.25, 0.5, 1, 2, 4, 8, 24, and 48 h postdose), extraction, and analysis were similar to those in the method described above.
Population PK modeling of the concentration-time data of KAE609 in mice was performed using naive pooling without intersubject variability using NONMEM version VI 2.0. A two-compartment pharmacokinetic model with first-order absorption and nonlinear elimination was built to fit the concentration-time data of KAE609 generated in (infected and healthy) NMRI mice at 5.3 mg/kg. In the model, clearance (CL) was described by equation 2, where Cp is compound plasma concentration, the maximum metabolic rate (Vmax)/Km ratio is the maximal clearance achievable when Cp is ≪Km, and Km corresponds to the compound concentration at which the clearance reached 50% of the Vmax/Km. The primary model parameters derived were plasma clearance (CL) (in liters/h/kg), intercompartmental clearance (Q) (in liters/h/kg), central and peripheral volume of distribution (Vc and Vp, respectively) (in liters/kg), and the absorption rate constant (Ka) (in h^−1). The diagnostic plots were analyzed for closeness to and randomness along the line of identity on the observed versus predicted concentration plot, as well as randomness along the weighted residual zero line on the predicted concentration or time. […] Based on the estimated primary model parameters (Vmax, Km, Vc, Vp, Q, and Ka), the plasma concentration-time profiles and secondary pharmacokinetic parameters, such as Cmax, AUC at different doses, and dosing regimens, were simulated using the Berkeley Madonna software (version 8.0.1) (Berkeley Madonna, University of California, Berkeley, CA. 2 CL=Vmax/(Km+Cp)

Caco-2 permeability = format: in vitro ADME; settings: human, Caco-2; apical to basolateral
Text: (§1) page 5: Running title: PreclinicalPK -PD of antimalarials 73 to high through put form at using in- house standard assa y protocols that are described in the 74 literature. 75 (a)HT-Equilibrium solubilit y at pH 6.8( 1); (b)Parallel Artificial Membrane P ermeability Assa y 76 expressed in % fraction absorbed (FA) ( 2,3 ); (c)Apparent permeability from apical to […] 78 tested; (d)intrinsic clearance in mouse liver micro somes ex pressed as µ L/ min/mg protein, in 79 the presen ce of liver enzym es ( 6); (e)Mous e plasm a protein binding using rapid equilibrium […] 81 82 83 84 85 86 87 88 89 90 91 92 93 94 95 96 97 98 5

[2] = In vivo PK after single p.o. and i.v. dosing in CD-1 mice; set-up: species or system female CD-1 mice; settings: for AUC(0-t): read-out: AUC0–24; for Cmax: read-out: Cmax; for Tmax: read-out: Tmax
Procedure: The Institutional Animal Care and Use Committee (IACUC) of the Novartis Institute for Tropical Diseases (NITD), registered with the Agri-Food and Veterinary authority (AVA), Government of Singapore, reviewed and approved all animal experimental protocols. […] The mice were allowed to acclimate before the initiation of the experiments. Feed and water were given ad libitum. […] The blood samples from the mice were collected at 0.02 (for i.v. only), 0.08, 0.25, 0.5, 1, 2, 4, 8, 16, and 24 h postdosing. The dose proportionality studies were conducted with KAE609. […] Additional samples were collected at 32 h and 48 h postdose for the 1- and 5-mg/kg dose groups and up to 72 h postdose for the 100-mg/kg dose group. Groups of three mice were used for each time point. Blood was centrifuged at 13,000 rpm for 7 min at 4°C, and plasma was harvested and stored at -20°C until analysis. […] After vortexing and centrifuging the mixture, the supernatant was removed and 5 μl of sample analyzed. Analyte quantitation was performed by high-performance liquid chromatography coupled with tandem mass spectrometry (LC-MS/MS). […] Instrument control and data acquisition were performed using the Applied Biosystems software Analyst 1.4.2. […] Multiple-reaction monitoring (MRM) was combined with optimized MS parameters to maximize detection specificity and sensitivity. The most intense MRM transitions [338.3/295.1 for (+)-1, 370.1/327.0 for (+)-2, 370.0/326.9 for (+)-3, 354.1/310.8 for (+)-4, 354.1/311.2 for (+)-5, 372.1/329.1 for (+)-6, 388.0/331.8 for (+)-7, 372.1/316.1 for (-)-6, and 388/332 for (-)-7] were used for quantitation. Most compounds were analyzed using electrospray ionization in the negative mode, except (+)-1, which was analyzed using positive mode. The recovery of the compounds from plasma was good and consistent across the concentration range studied. The lower limits of quantification for different compounds ranged from 1.3 to 70 ng/ml in plasma. A calibration curve was freshly prepared and analyzed with every set of study samples. Intraday variability was established with triplicate quality control samples at three concentration levels. The results were accepted if relative standard deviation was <15%. The mean values of the compound concentrations in plasma were obtained from three animals at each time point and plotted against time to generate concentration-time profiles. […] The oral bioavailability (F) was calculated as the ratio between the area under the concentration-time curve from 0 to infinity (AUC0-∞) following oral administration and the AUC0-∞ following intravenous administration corrected for dose (F = […].).

[3] = Intrinsic clearance in mouse liver microsomes; format: in vitro ADME; settings: mouse, liver microsomes; per mg protein; read-out: Hepatic CLint in mouse liver microsomes
Text: as §1

[4] = female, mouse, plasma, po, infected NMRI mice
[5] = female, mouse, plasma, po, uninfected NMRI mice
[6] = two-compartment model, NMRI mice 5.3 mg/kg p.o.
[7] = female, mouse, plasma, oral 1.5 mg/kg, CD-1 mice, HCl/Solutol HS15/citrate pH 3 formulation
[8] = female, mouse, plasma, oral 5.6 mg/kg, CD-1 mice, HCl/Solutol HS15/citrate pH 3 formulation
[9] = female, mouse, plasma, oral 105 mg/kg, CD-1 mice, HCl/Solutol HS15/citrate pH 3 formulation
[10] = female, mouse, plasma, single oral dose 25 mg/kg, CD-1 mice
[11] = oral 1.5–105 mg/kg, CD-1 mouse, power regression model

C[C@H]1Cc2c([nH]c3cc(Cl)c(F)cc23)[C@@]2(N1)C(=O)Nc1ccc(Cl)cc12 [(+)-7 (KAE609)]
Fold higher Cmax and exposure in NMRI mice than in CD-1 mice ([1]; comparable oral dose (5 mg/kg)): 4 fold
AUC(0-inf) [1, 4]: 12600 ng·h/mL
Cmax [1, 4]: 960 ng/mL
AUC(0-inf) [1, 5]: 13200 ng·h/mL
Cmax [1, 5]: 1010 ng/mL
Km ([1]; female, mouse, plasma, po, two-compartment model, nonlinear elimination, NMRI mice 5.3 mg/kg p.o.): 0.0341 µg/mL
Difference in PK profiles between infected and uninfected NMRI mice ([1]; oral 5.3 mg/kg): No significant difference
Ka (absorption rate constant) [1, 6]: 1.78 h⁻¹
Q (intercompartmental clearance) [1, 6]: 10.2 mL/min/kg
Vc (central volume of distribution) [1, 6]: 4.4 L/kg
Vp (peripheral volume of distribution) [1, 6]: 5.1 L/kg
Vmax ([1]; two-compartment model, nonlinear elimination, NMRI mice 5.3 mg/kg p.o.): 143 µg/h/kg
Papp A→B (Caco-2 permeability): 1.69 ×10⁻⁶ cm/s
Vd ([2]; female, mouse, plasma, iv, i.v. 5 mg/kg, CD-1 mice, read-out: Vss): 2.1 L/kg
half-life ([2]; female, mouse, plasma, iv, i.v. 5 mg/kg, CD-1 mice, read-out: t1/2 (i.v.) (converted)): 3.4 h
AUC(0-t) [2, 7]: 1000 ng·h/mL
Cmax [2, 7]: 100 ng/mL
bioavailability ([2]; female, mouse, plasma, oral 1.5 mg/kg, CD-1 mice, HCl/Solutol HS15/citrate pH 3 formulation, read-out: F): 44%
Tmax [2, 7]: 1 h
half-life ([2]; female, mouse, plasma, oral 1.5 mg/kg, CD-1 mice, HCl/Solutol HS15/citrate pH 3 formulation, read-out: t1/2 (oral) (converted)): 8.7 h
AUC(0-t) [2, 8]: 2600 ng·h/mL
Cmax [2, 8]: 250 ng/mL
bioavailability ([2]; female, mouse, plasma, oral 5.6 mg/kg, CD-1 mice, HCl/Solutol HS15/citrate pH 3 formulation, read-out: F): 32%
Tmax [2, 8]: 2 h
half-life ([2]; female, mouse, plasma, oral 5.6 mg/kg, CD-1 mice, HCl/Solutol HS15/citrate pH 3 formulation, read-out: t1/2 (oral) (converted)): 7.5 h
bioavailability ([2]; female, mouse, plasma, oral 25 mg/kg vs i.v. 5 mg/kg, CD-1 mice, read-out: F (oral bioavailability)): 100%
AUC(0-t) [2, 9]: 187000 ng·h/mL
Cmax [2, 9]: 10800 ng/mL
bioavailability ([2]; female, mouse, plasma, oral 105 mg/kg, CD-1 mice, HCl/Solutol HS15/citrate pH 3 formulation, read-out: F): 100%
Tmax [2, 9]: 24 h
half-life ([2]; female, mouse, plasma, oral 105 mg/kg, CD-1 mice, HCl/Solutol HS15/citrate pH 3 formulation, read-out: t1/2 (oral) (converted)): 9.4 h
AUC(0-t) [2, 10]: 43300 ng·h/mL
Tmax [2, 10]: 1 h
half-life ([2]; female, mouse, plasma, single oral dose 25 mg/kg, CD-1 mice, read-out: t1/2 (oral) (converted)): 10 h
Cmax ([2]; female, mouse, single oral dose 25 mg/kg, CD-1 mice, plasma): 3600 ng/mL
CL ([2]; i.v. 5 mg/kg, CD-1 mice): 9.7 mL/min/kg
Dose linearity ([2]; oral 1.5–105 mg/kg, CD-1 mouse): nonlinear behavior
Slope, log dose vs log AUC0-24 (dose proportionality) [2, 11]: 1.30
Slope, log dose vs log Cmax (dose proportionality) [2, 11]: 1.18
microsomal CLint [3]: 28 µL/min/mg
